Test results published in the supplement of paper PMC10307832.

Assays:
Assay in all cases: relative viability (nuclei count vs DMSO), 5 days (fraction); higher = more cells survive
BI-2536 + OSI-027 = compound: CC[C@@H]1C(=O)N(C)c2cnc(Nc3ccc(C(=O)NC4CCN(C)CC4)cc3OC)nc2N1C1CCCC1 [BI-2536] + COc1cccc2cc(-c3nc([C@H]4CC[C@H](C(=O)O)CC4)n4ncnc(N)c34)[nH]c12 [OSI-027] (partner 0.5 µM)
How it was run: (§1)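 Lung cancer cell lines, seeded in 1536-well plates, were treated the following day by pin tool with a single drug or with five library-drug doses (not always all listed) in √10 steps on top of a fixed anchor-drug dose. Cells were fixed and nuclei stained in one step after 5 days, and nuclei were counted. Relative viability is the nuclei count for treated wells divided by that for vehicle wells, reported as medians of duplicate plates.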

NPK76-II-72-1 + Olaparib = compound: CC1CC(=O)N(C2=CN=C(N=C2N1C3CCCC3)NC4=C(C=C(C=C4)C(=O)NC5CCN(CC5)C)OC)C [NPK76-II-72-1] + O=C(c1cc(Cc2n[nH]c(=O)c3ccccc23)ccc1F)N1CCN(C(=O)C2CC2)CC1 [Olaparib] (partner 8 µM)
How it was run: as §1

BI-2536 + Crizotinib = compound: CC[C@@H]1C(=O)N(C)c2cnc(Nc3ccc(C(=O)NC4CCN(C)CC4)cc3OC)nc2N1C1CCCC1 [BI-2536] + C[C@@H](Oc1cc(-c2cnn(C3CCNCC3)c2)cnc1N)c1c(Cl)ccc(F)c1Cl [Crizotinib] (partner 1 µM)
How it was run: as §1

BI-2536 + Trametinib = compound: CC[C@@H]1C(=O)N(C)c2cnc(Nc3ccc(C(=O)NC4CCN(C)CC4)cc3OC)nc2N1C1CCCC1 [BI-2536] + CC(=O)Nc1cccc(-n2c(=O)n(C3CC3)c(=O)c3c(Nc4ccc(I)cc4F)n(C)c(=O)c(C)c32)c1 [Trametinib] (partner 0.02 µM)
How it was run: as §1

| Cell Line | relative viability (BI-2536 + OSI-027; first compound 0.01 µM) | relative viability (BI-2536 + OSI-027; first compound 0.03162 µM) | relative viability (BI-2536 + OSI-027; first compound 0.1 µM) | relative viability (BI-2536 + OSI-027; first compound 0.3162 µM) | relative viability (BI-2536 + OSI-027; first compound 1 µM) | relative viability (NPK76-II-72-1 + Olaparib; first compound 0.01 µM) | relative viability (NPK76-II-72-1 + Olaparib; first compound 0.03162 µM) | relative viability (NPK76-II-72-1 + Olaparib; first compound 0.1 µM) | relative viability (NPK76-II-72-1 + Olaparib; first compound 0.3162 µM) | relative viability (NPK76-II-72-1 + Olaparib; first compound 1 µM) | relative viability (BI-2536 + Crizotinib; first compound 0.01 µM) | relative viability (BI-2536 + Crizotinib; first compound 0.03162 µM) | relative viability (BI-2536 + Crizotinib; first compound 0.1 µM) | relative viability (BI-2536 + Crizotinib; first compound 0.3162 µM) | relative viability (BI-2536 + Crizotinib; first compound 1 µM) | relative viability (BI-2536 + Trametinib; first compound 0.01 µM) | relative viability (BI-2536 + Trametinib; first compound 0.03162 µM) | relative viability (BI-2536 + Trametinib; first compound 0.1 µM) | relative viability (BI-2536 + Trametinib; first compound 0.3162 µM) | relative viability (BI-2536 + Trametinib; first compound 1 µM) |
| --- | --- | --- | --- | --- | --- | --- | --- | --- | --- | --- | --- | --- | --- | --- | --- | --- | --- | --- | --- | --- |
| LK-2 | 0.202 | 0.183 | 0.169 | 0.158 | 0.151 | 0.775 | 0.716 | 0.679 | 0.565 | 0.725 | 0.245 | 0.237 | 0.202 | 0.177 | 0.245 | 0.787 | 0.752 | 0.746 | 0.173 | 0.181 |
| NCI-H2126 | 0.832 | 0.641 | 0.472 | 0.276 | 0.218 | 0.903 | 0.897 | 0.901 | 0.855 | 0.956 | 1.04 | 0.85 | 0.85 | 0.341 | 0.253 | 0.622 | 0.597 | 0.517 | 0.234 | 0.228 |
| NCI-H3122 | 0.944 | 0.16 | 0.13 | 0.17 | 0.213 | 0.6 | 0.6 | 0.722 | 0.653 | 0.589 | 0.294 | 0.272 | 0.242 | 0.182 | 0.199 | 0.226 | 0.239 | 0.209 | 0.131 | 0.171 |
| NCI-H1975 | 0.628 | 0.623 | 0.515 | 0.125 | 0.107 | 0.769 | 0.841 | 0.716 | 0.811 | 0.75 | 1.12 | 0.504 | 0.595 | 0.185 | 0.166 | 0.252 | 0.363 | 0.295 | 0.12 | 0.122 |
| NCI-H1944 | 0.418 | 0.443 | 0.291 | 0.134 | 0.148 | 0.429 | 0.438 | 0.409 | 0.43 | 0.404 | 1.14 | 1.3 | 1.21 | 0.184 | 0.147 | 0.392 | 0.427 | 0.439 | 0.144 | 0.186 |
| LU99A | 0.281 | 0.28 | 0.181 | 0.161 | 0.17 | 0.259 | 0.244 | 0.297 | 0.253 | 0.285 | 0.527 | 0.526 | 0.218 | 0.212 | 0.184 | 0.525 | 0.647 | 0.562 | 0.196 | 0.192 |
| SW 1573 | 0.681 | 0.44 | 0.133 | 0.0966 | 0.0839 | 0.437 | 0.625 | 0.495 | 0.488 | 0.473 | 0.774 | 0.905 | 0.708 | 0.17 | 0.126 | 0.515 | 0.51 | 0.117 | 0.103 | 0.0762 |
| NCI-H2347 |  | 0.464 | 0.346 | 0.285 | 0.276 | 0.525 | 0.632 | 0.612 | 0.508 | 0.658 | 0.675 | 0.692 | 0.675 | 0.345 | 0.445 | 0.261 | 0.302 | 0.282 | 0.264 | 0.238 |
| NCI-H2009 | 0.613 | 0.543 | 0.259 | 0.173 | 0.154 | 0.652 | 0.787 | 0.675 | 0.686 | 0.64 | 0.962 | 0.696 | 0.287 | 0.191 | 0.16 | 0.262 | 0.246 | 0.336 | 0.131 | 0.159 |
| NCI-H1299 |  |  |  |  |  | 0.946 | 1.01 | 0.953 | 0.95 | 0.947 | 0.946 | 0.808 | 0.663 | 0.266 | 0.224 |  |  |  |  |  |
| ABC-1 | 0.419 | 0.362 | 0.237 | 0.236 | 0.19 | 0.606 | 0.537 | 0.764 | 0.803 | 1.34 | 1.27 | 0.601 | 0.353 | 0.205 | 0.214 |  |  |  |  |  |
| NCI-H1793 | 0.271 | 0.256 | 0.143 | 0.157 | 0.136 |  | 0.985 | 1.02 | 0.589 | 0.808 |  |  |  |  |  | 0.37 | 0.435 | 0.251 | 0.177 | 0.183 |
| NCI-H1648 | 0.258 | 0.25 | 0.233 | 0.203 | 0.24 | 0.535 | 0.891 | 0.567 | 0.889 | 1.05 |  |  |  |  |  | 0.463 | 0.409 | 0.434 | 0.28 | 0.289 |
| NCI-H1563 | 0.811 | 0.792 | 0.704 | 0.535 | 0.541 |  |  |  |  |  | 0.902 | 0.817 | 0.822 | 0.621 | 0.561 |  |  |  |  |  |
| A549 |  |  |  |  |  | 0.215 | 0.387 | 0.356 | 0.269 | 0.417 | 0.727 | 0.565 | 0.119 | 0.0589 | 0.0294 |  |  |  |  |  |
| NCI-H522 | 0.752 | 0.72 | 0.445 | 0.399 | 0.372 | 0.586 | 0.661 | 0.703 |  | 0.607 |  |  |  |  |  | 0.745 | 0.757 | 0.766 | 0.302 | 0.289 |
| NCI-H1623 | 0.433 | 0.392 | 0.39 | 0.233 | 0.294 |  |  |  |  |  |  |  |  |  |  |  |  |  |  |  |
| SW 900 | 0.6 | 0.427 | 0.456 | 0.129 | 0.132 | 0.805 | 0.908 | 0.739 | 0.743 | 0.982 |  |  |  |  |  | 0.929 | 0.942 | 0.875 | 0.828 | 0.147 |
| NCI-H1395 | 0.617 | 0.64 | 0.313 | 0.306 | 0.386 | 0.459 | 0.45 | 0.493 | 0.477 | 0.466 |  |  |  |  |  | 1.06 | 0.635 | 0.611 | 0.353 | 0.369 |
| IA-LM |  |  |  |  |  | 0.811 | 0.825 | 0.766 | 0.788 | 0.847 | 0.771 | 0.667 | 0.125 | 0.108 | 0.058 |  |  |  |  |  |
| EBC-1 |  |  |  |  |  | 0.697 | 0.734 | 0.712 | 0.7 | 0.812 | 0.194 | 0.14 | 0.175 | 0.141 | 0.145 |  |  |  |  |  |
